Data on 17 compounds can be found in US9833431B2, “Pharmaceutical combinations for the treatment of cancer” (Pitney Pharmaceuticals Pty Limited, priority 2013, dated 2017).

For one data set, the system named is OVCAR-3 and A2780. The format is cell-based, human. The note with it: Example 2; cell line not given.
The test system of the next data set is OVCAR-3. Put plainly: SRB cytotoxicity / proliferation assay, OVCAR-3 cells. The following applies: 72 h; for Interaction of the drug with MPL (synergy), in words: OVCAR-3 cells, concentrations as stated in the figure.
For a further data set, the system named is A2780. Put plainly: SRB cytotoxicity / proliferation assay, A2780 cells. The following applies: for Interaction of the drug with MPL (synergy), in words: 72 h; for IC50: read-out: IC50 value, cell proliferation, approximate values.
A further data set concerns Hep3B. Put plainly: SRB cytotoxicity assay, Hep3B cells. It is filed as cell-based, human. The note with it: Hep3B cells; MPL at 5 μM; 48 h; FIG. 24. As for the experimental part: (§1) All cell lines described herein were purchased from ATCC. […] Control cultures were treated with ethanol alone.
(In SRB staining, fixed cells bind dye roughly in proportion to their protein.)

The next data set relates to LN-18. Put plainly: SRB cytotoxicity assay, LN-18 cells. The format is cell-based, human. The following applies: LN18 cells; 72 h; FIG. 21. The procedure: as §1
The subject of the next data set is U87. Put plainly: SRB cytotoxicity assay, U87 cells. It is filed as cell-based, human. The following applies: U87 cells; 72 h; FIG. 21. The procedure:
as §1

The test system of the next data set is PET. Put plainly: SRB cytotoxicity assay, PET cells. The format is cell-based, human. The following applies: PET mesothelioma cells; 72 h; FIG. 25. The procedure: as §1
For another data set, the system named is REN. Put plainly: SRB cytotoxicity assay, REN cells. It is filed as cell-based, human. The following applies: REN mesothelioma cells; 72 h; FIG. 25. As for the experimental part: as §1
The next data set has as its system YOU. The data set is described as follows: SRB cytotoxicity assay, YOU cells. It is filed as cell-based, human. The following applies: YOU mesothelioma cells; 72 h; FIG. 25. As for the experimental part: as §1
For another data set, the system named is AsPC1. The data set is described as follows: SRB cytotoxicity assay, AsPC1 cells. It is filed as cell-based, human. The following applies: AsPC-1 cells; 72 h; FIG. 23. As for the experimental part:
as §1

In another data set the test system is C170. Put plainly: SRB cytotoxicity assay, C170 cells. It is filed as cell-based. The following applies: C170 cells; MPL 5 μM; 5-FU 20 μM, gemcitabine 0.5 μM, oxaliplatin 1 μM; 72 h; FIG. 27. As for the experimental part: as §1
In the next data set the test system is HT-29. The data set is described as follows: cells. The format is cell-based. The following applies: HT29 cells; MPL 5 μM; 5-FU 20 μM, gemcitabine 0.5 μM, oxaliplatin 1 μM; 72 h; FIG. 27. As for the experimental part: as §1
Another data set relates to CFPAC-1. The data set is described as follows: SRB cytotoxicity assay, CFPAC-1 cells. The note with it: CFPAC-1 cells, 72 h.
Data set [1] has as its system HOSE. Put plainly: SRB cytotoxicity assay, HOSE non-malignant control cells. The following applies: for Interaction of the drug with MPL (synergy), in words: HOSE non-malignant control cells, concentrations as stated at the place or in the figure.
Experimental: (§2) All cell lines described herein were purchased from ATCC. Cells were seeded in 96-well plates (2,000-3,000 cells/well) and culture overnight prior to treatment with MPL. Control cultures were treated with ethanol alone.
(§3) Cells were seeded in 96-well plates (2,000-3,000 cells/well), treated with the indicated compound(s) for 72 h, fixed, washed and stained with 100 μl of 0.4% (w/v) SRB dissolved in 1% acetic acid. Unbound dye was removed by five washes with 1% acetic acid before air-drying.
(§4) Corresponding cytotoxicity of the major metabolite MPL-SO2 has also been tested where indicated. […] HUVEC, human fetal astrocytes and HOSE cells are non-transformed, non-immortalized and non-malignant, freshly isolated/low passage number cell populations, from apparently healthy non-diseased tissue. These healthy cell populations were included in the experimental series as controls for non-specific toxicity. Both MPL and MPL-SO2 were suspended in ethanol and applied in final concentrations of 0.5 to 1% ethanol in the respective culture media.
(§5) In order to evaluate the effect of MPL on the in vitro efficacy of an established drug was evaluated using cell viability and cell proliferation assays. Cell viability was conducted according to standard Trypan Blue method. Cell proliferation was assessed using the sulforhodamine B (SRB) assay. For viability experiments, cells were seeded in 6 well plates, whereas for proliferation assays cells were grown in 96 well plates. Following over-night attachment, cells were treated with the intended drug at various concentrations either alone or in combination with monepantel (MPL) for 72 h. Parallel to this, cells treated with MPL alone were also deployed for comparative purposes. Following incubation for 72 h in a standard cell culture incubator, effect of mono and combined drug treatments on cell viability and/or cell proliferation was assessed through using Trypan Blue or SRB assays respectively.
(§6) For viability assay, at the end of treatment period, cells were washed with PBS, trypsinized and counted using Trypan blue and hemocytometer. For the SRB assay cells were fixed, washed and stained with 100 μl of 0.4% (w/v) SRB dissolved in 1% acetic acid. Unbound dye was removed by five washes with 1% acetic acid before air drying. […] Monepantel (gift by Novartis, Basel, Switzerland) was dissolved in 100% ethanol and then diluted with the cell culture media. Other agents employed in the study were purchased either from Sigma Australia or Sapphire Australia, prepared and preserved for cell culture use according to supplier instructions.
(§7) MPL (5 μM) and combination drugs were applied for 72 h unless indicated.
The subject of data set [2] is HOSE.
Experimental: as §2, §3, §4, §5, §6, §7
Setting [3] is: A2780 cells, concentrations as stated at the place or in the figure.

“Also recorded” adds a separate entry of the source. Where two headings read alike, the source gives them in different places.

Experimental for CFPAC-1: Cells were seeded in 96-well plates (2,000-3,000 cells/well) and culture overnight prior to treatment with MPL. Control cultures were treated with ethanol alone.
Cytotoxicity was assessed using the sulforhodamine B (SRB) assay and reported as half maximal inhibitory concentration (IC50; Table 3). Cells were seeded in 96-well plates (2,000-3,000 cells/well), treated with the indicated compound(s) for 72 h, fixed, washed and stained with 100 μl of 0.4% (w/v) SRB dissolved in 1% acetic acid. Unbound dye was removed by five washes with 1% acetic acid before air-drying.
as §7
Experimental for OVCAR-3 and A2780: The human ovarian cancer cell lines OVCAR-3 and A2780, and the normal non-malignant human ovarian surface epithelial (HOSE) cell line, were all obtained from the American Type Culture Collection (ATCC) and maintained according to their instructions.
as §5
For viability assay, at the end of treatment period, cells were washed with PBS, trypsinized and counted using Trypan blue and hemocytometer. For the SRB assay cells were fixed, washed and stained with 100 μl of 0.4% (w/v) SRB dissolved in 1% acetic acid. Unbound dye was removed by five washes with 1% acetic acid before air drying. […] Monepantel (gift by Novartis, Basel, Switzerland) was dissolved in 100% ethanol and then diluted with the cell culture media.

For `NC(Cc1c[nH]cn1)C(=O)O` (racemic) [DL-histidine], the “effect of combination with MPL, in words” value with OVCAR-3 and A2780 is listed as “no effect”. The “Interaction of the drug with MPL (synergy), in words” value in the data set with OVCAR-3 was “no synergistic effect”.
For `CCCSc1ccc2nc(NC(=O)OC)[nH]c2c1` [A8Z, albendazole], the “Interaction of the drug with MPL (synergy), in words” value with A2780 (setting [3]) was “good synergistic effect”.
`CN/C(=N/CCSCc1nc[nH]c1C)NC#N` [Cimetidine]: the “Interaction of the drug with MPL (synergy), in words” value in the data set on A2780 (setting [3]) is reported as “significant combination synergistic effect”.
On to `N.N.[Cl][Pt][Cl]` [Cisplatin, cis-diamminedichloroplatinum(II)], for which the “Interaction of the drug with MPL (synergy), in words” value is listed as “No synergy was observed” with Hep3B and “some increase of effect” in the data set with A2780 (setting [3]).
On to `COc1cc2c(c(OC)c1OC)-c1ccc(OC)c(=O)cc1[C@@H](NC(C)=O)CC2` [Colchicine], for which the “Interaction of the drug with MPL (synergy), in words” value in the data set on A2780 (setting [3]) is listed as “cytotoxic effect”; with A2780 (A2780 cells, concentrations as stated at the place or in the figure, listed as colchicine), “synergistic effect; also recorded: synergistic cytotoxicity”.
In the case of `COc1cccc2c1C(=O)c1c(O)c3c(c(O)c1C2=O)C[C@@](O)(C(=O)CO)C[C@@H]3O[C@H]1C[C@H](N)[C@H](O)[C@H](C)O1` [Doxorubicin], the “Interaction of the drug with MPL (synergy), in words” value in the data set with LN-18 is “synergistic interaction; also recorded: synergistic inhibition”; in the data set with U87 it was “synergistic interaction; also recorded: synergistic inhibition”; in the data set on Hep3B, “synergistic cytotoxicity; also recorded: synergistically inhibits; also recorded: synergistically cytotoxic”; in the data set with PET, “synergistic interaction; also recorded: synergistic inhibition”; in the data set with REN it was “synergistic interaction; also recorded: synergistic inhibition”; with YOU, “synergistic interaction; also recorded: synergistic inhibition”. Moreover, the “Interaction of the drug with MPL (synergy), in words” value was “do not display a synergistic interaction” with AsPC1; “synergy; also recorded: synergistic interaction; also recorded: synergistic inhibition” with A2780 (A2780 cells, concentrations as stated in the figure); “synergistic interaction; also recorded: synergistic inhibition; also recorded: synergistic cytotoxic effect” in the data set on OVCAR-3. In addition, the “doxorubicin concentration in the absence of MPL equivalent to doxorubicin (10 nM) in the presence of MPL (5 μM)” value in the data set with A2780 (A2780 cells, FIG. 1) is 1000 nM. The IC50 was about 0.001 µM in the data set with A2780 (A2780 cells, with addition of 5 μM MPL, FIG. 1) and about 0.5 µM in the data set with A2780 (A2780 cells, without MPL, FIG. 1).
Consider `O=c1[nH]cc(F)c(=O)[nH]1` [Fluorouracil], for which, in the data set with C170, the “Interaction of the drug(s) with MPL (synergy), in words” value is given as “synergistic cytotoxicity”. The “effect of combination with MPL, in words” value in the data set with OVCAR-3 and A2780 is given as “significant increase in the effect”.
As for `Nc1ccn([C@@H]2O[C@H](CO)[C@@H](O)C2(F)F)c(=O)n1` [Gemcitabine], the “Interaction of the drug(s) with MPL (synergy), in words” value is “synergistic cytotoxicity” in the data set with C170; “synergistic cytotoxicity” with HT-29; “synergistically exerted a cytotoxic effect” with CFPAC-1 (10 μM MPL, data not shown). Moreover, the “Interaction of the drug with MPL (synergy), in words” value was “synergistic interaction; also recorded: synergistically inhibits” in the data set with LN-18; “No synergy was observed” in the data set with Hep3B; “do not display a synergistic interaction” in the data set on PET; “do not display a synergistic interaction” in the data set on REN; “do not display a synergistic interaction” in the data set with YOU; “strong synergistic interaction; also recorded: synergistically inhibits” in the data set with AsPC1. The “Interaction of the drug with MPL (synergy), in words” value with CFPAC-1 (5 μM MPL, FIG. 23) is on record as “synergistic interaction; also recorded: synergistically exerted a cytotoxic effect”; in the data set on A2780 (setting [3]) it was “strong synergistic interaction”; with A2780 (A2780 cells, concentrations as stated at the place or in the figure, listed as gemcitabine) it was “synergistically inhibits”; with HOSE [1] (72 h), “do not display the same synergistic interaction”; in the data set with HOSE [1] (72 h, listed as gemcitabine) it was “do not display a synergistic interaction; also recorded: without displaying a synergistic interaction”. The “effect of combination with MPL, in words” value in the data set on OVCAR-3 and A2780 was “notable increase in efficacy”.
Take `N[C@@H](Cc1c[nH]cn1)C(=O)O` [L-histidine]: in the data set on OVCAR-3 and A2780, the “effect of combination with MPL, in words” value is given as “no effect”. Also, the “Interaction of the drug with MPL (synergy), in words” value in the data set with OVCAR-3 was “no synergistic effect”.
With `c1ccc([C@H]2CN3CCSC3=N2)cc1` [Levamisole], the “Interaction of the drug with MPL (synergy), in words” value with A2780 (setting [3]) is given as “did not display a synergistic effect”; in the data set on A2780 (A2780 cells, concentrations as stated at the place or in the figure, listed as levamisole), “does not display a synergistic cytotoxicity”; in the data set on OVCAR-3, “significant synergistic effect; also recorded: does so against OVCAR-3 cells”. In the data set on A2780 (A2780 cells, levamisole at higher concentrations), the “synergistic cytotoxic effect with MPL, predicted” value is listed as “may exert a synergistic cytotoxic effect”. The “Synergistic cytotoxicity between MPL and combined drug” value with OVCAR-3 (OVCAR-3, 5 μM MPL + drug, Table 7) is listed as “✓^3”.
`CC#C[C@]1(O)CC[C@H]2[C@@H]3CCC4=CC(=O)CCC4=C3[C@@H](c3ccc(N(C)C)cc3)C[C@@]21C` [Mifepristone]: in the data set on A2780 (setting [3]), the “Interaction of the drug with MPL (synergy), in words” value was “significant combination synergistic effect”.
Consider `CN(C)c1ccc(O)c2c1C[C@H]1C[C@H]3[C@H](N(C)C)C(O)=C(C(N)=O)C(=O)[C@@]3(O)C(O)=C1C2=O` [Mino, minocycline], for which the “B) Double treatment with MPL: synergistic cytotoxicity, one symbol per experiment” value with OVCAR-3 (OVCAR-3, MPL 5.0 μM + Mino (5 μM)) is on record as “✓✓✓”; in the data set with OVCAR-3 (OVCAR-3, MPL 5.0 μM + Mino (10 μM)) it was “✓✓✓”; in the data set with HOSE [1] (HOSE, MPL 5.0 μM + Mino (5 μM), 72 h), “✓✓✓”.
`O=C1[O][Pt]2([NH][C@@H]3CCCC[C@H]3[NH]2)[O]C1=O` [Oxaliplatin]: the “Interaction of the drug with MPL (synergy / additive cytotoxicity), in words” value is given as “does not exert any additive cytotoxic effect” in the data set with HOSE [2] and “does not display a synergistic cytotoxicity” with HOSE [1] (HOSE cells, MPL at 5 μM, 48 h, FIG. 24).
Turning to `CC/C(=C(\c1ccccc1)c1ccc(OCCN(C)C)cc1)c1ccccc1` [Tamoxifen], the “effect of combination with MPL, in words” value in the data set with OVCAR-3 and A2780 is “significant increase in the effect”.
With `Cn1c(=O)c2c(ncn2C)n(C)c1=O` [caffeine], in the data set with OVCAR-3, the “Interaction of the drug with MPL (synergy), in words” value is reported as “no synergistic effect”.
Take `NCC(=O)O` [glycine]: the “effect of combination with MPL, in words” value in the data set with OVCAR-3 and A2780 is recorded as “no effect”. Besides, the “Interaction of the drug with MPL (synergy), in words” value with OVCAR-3 is “no synergistic effect”.
Take Ivermectin: the “effect of the drug alone” value in the data set with A2780 (A2780 (ovarian)) is “inhibited”. Also, the “Interaction of the drug with MPL (synergy), in words” value in the data set with A2780 (setting [3]) is on record as “synergistic effect”.
